From publication PMC5564600 (Oncotarget, 2017)
Where two headings read alike, the source gives them in different places.

Key:
Test in all cases: biochemical
Format in all cases: binding
panel of 442 kinases [1] = target: T1, panel of 442 kinases (Homo sapiens, UniProt P00519, H396P); settings: for remaining activity at 1 µM: read-out: % of control at 1 µM; for remaining activity at 10 µM: read-out: % of control at 10 µM
T1 construct: purchased Ambit Biosciences (scanMAXX KINOMEscan)

panel of 442 kinases [2] = target: T2, panel of 442 kinases (Homo sapiens, UniProt P78356); settings: kinase PIP5K2B; for remaining activity at 1 µM: read-out: % of control at 1 µM
T2 construct: purchased Ambit Biosciences (scanMAXX KINOMEscan)
T2 sequence (P78356 1-416): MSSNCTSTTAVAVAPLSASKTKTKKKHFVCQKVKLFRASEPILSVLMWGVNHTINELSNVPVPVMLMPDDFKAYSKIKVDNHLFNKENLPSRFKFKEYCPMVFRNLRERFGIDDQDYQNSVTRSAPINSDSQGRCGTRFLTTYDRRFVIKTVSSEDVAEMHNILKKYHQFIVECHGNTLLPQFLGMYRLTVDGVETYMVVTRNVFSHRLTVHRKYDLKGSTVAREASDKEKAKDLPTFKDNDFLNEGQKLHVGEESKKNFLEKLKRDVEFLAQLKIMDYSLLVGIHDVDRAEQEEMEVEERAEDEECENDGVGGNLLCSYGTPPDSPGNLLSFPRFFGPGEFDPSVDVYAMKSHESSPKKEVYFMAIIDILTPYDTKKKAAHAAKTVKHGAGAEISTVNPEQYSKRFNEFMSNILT

panel of 442 kinases [3] = target: T3, panel of 442 kinases (Homo sapiens, UniProt Q16620); settings: kinase TRKB; for remaining activity at 1 µM: read-out: TRKB (% of control at 1 µM)
T3 construct: purchased Ambit Biosciences (scanMAXX KINOMEscan)

panel of 442 kinases [4] = target: T4, panel of 442 kinases (Homo sapiens, UniProt Q9H422); settings: kinase HIPK3; for remaining activity at 1 µM: read-out: % of control at 1 µM
T4 construct: purchased Ambit Biosciences (scanMAXX KINOMEscan)

panel of 442 kinases [5] = target: T5, panel of 442 kinases (Homo sapiens, UniProt Q07912); settings: kinase TNK2; for remaining activity at 1 µM: read-out: TNK2 (% of control at 1 µM)
T5 construct: purchased Ambit Biosciences (scanMAXX KINOMEscan)

panel of 442 kinases [6] = target: T6, panel of 442 kinases (Homo sapiens, UniProt P00533, T790M); settings: EGFR(T790M); for remaining activity at 1 µM: read-out: % of control at 1 µM
T6 construct: purchased Ambit Biosciences (scanMAXX KINOMEscan)

panel of 442 kinases [7] = target: T7, panel of 442 kinases (Homo sapiens, UniProt Q99759); settings: kinase MAP3K3; for remaining activity at 1 µM: read-out: % of control at 1 µM
T7 construct: purchased Ambit Biosciences (scanMAXX KINOMEscan)
T7 sequence (Q99759 1-626): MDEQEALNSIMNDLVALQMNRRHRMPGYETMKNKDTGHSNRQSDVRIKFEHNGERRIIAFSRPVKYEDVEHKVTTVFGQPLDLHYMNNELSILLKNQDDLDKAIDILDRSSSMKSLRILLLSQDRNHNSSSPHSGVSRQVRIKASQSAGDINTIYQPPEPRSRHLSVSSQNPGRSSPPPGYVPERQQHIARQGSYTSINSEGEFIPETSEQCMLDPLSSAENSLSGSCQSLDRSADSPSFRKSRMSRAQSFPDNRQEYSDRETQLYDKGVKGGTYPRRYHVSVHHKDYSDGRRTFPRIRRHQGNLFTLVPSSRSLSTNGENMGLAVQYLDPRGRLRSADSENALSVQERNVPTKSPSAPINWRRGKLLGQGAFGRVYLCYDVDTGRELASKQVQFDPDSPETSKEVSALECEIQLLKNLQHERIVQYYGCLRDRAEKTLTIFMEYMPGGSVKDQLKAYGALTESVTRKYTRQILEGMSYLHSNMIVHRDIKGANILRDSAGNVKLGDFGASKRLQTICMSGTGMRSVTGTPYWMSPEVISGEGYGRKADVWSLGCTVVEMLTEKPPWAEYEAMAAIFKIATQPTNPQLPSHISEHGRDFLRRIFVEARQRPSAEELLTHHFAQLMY

panel of 442 kinases [8] = target: T8, panel of 442 kinases (Homo sapiens, UniProt P22607, G697C); settings: FGFR3(G697C); for remaining activity at 1 µM: read-out: % of control at 1 µM
T8 construct: purchased Ambit Biosciences (scanMAXX KINOMEscan)

panel of 442 kinases [9] = target: T9, panel of 442 kinases (Homo sapiens, UniProt Q9UIK4); settings: DAPK2; for remaining activity at 1 µM: read-out: % of control at 1 µM
T9 construct: purchased Ambit Biosciences (scanMAXX KINOMEscan)

panel of 442 kinases [10] = target: T10, panel of 442 kinases (Homo sapiens, UniProt Q9UEW8); settings: kinase STK39; for remaining activity at 1 µM: read-out: STK39 (% of control at 1 µM)
T10 construct: purchased Ambit Biosciences (scanMAXX KINOMEscan)

panel of 442 kinases [11] = target: T11, panel of 442 kinases (Homo sapiens, UniProt Q02750); settings: kinase MEK1; for remaining activity at 1 µM: read-out: % of control at 1 µM
T11 construct: purchased Ambit Biosciences (scanMAXX KINOMEscan)

panel of 442 kinases [12] = target: T12, panel of 442 kinases (Homo sapiens, UniProt P53667); settings: kinase LIMK1; for remaining activity at 1 µM: read-out: % of control at 1 µM
T12 construct: purchased Ambit Biosciences (scanMAXX KINOMEscan)

panel of 442 kinases [13] = target: T13, panel of 442 kinases (Homo sapiens, UniProt Q96BR1); settings: kinase SGK3; for remaining activity at 1 µM: read-out: SGK3 (% of control at 1 µM)
T13 construct: purchased Ambit Biosciences (scanMAXX KINOMEscan)
T13 sequence (Q96BR1 1-496): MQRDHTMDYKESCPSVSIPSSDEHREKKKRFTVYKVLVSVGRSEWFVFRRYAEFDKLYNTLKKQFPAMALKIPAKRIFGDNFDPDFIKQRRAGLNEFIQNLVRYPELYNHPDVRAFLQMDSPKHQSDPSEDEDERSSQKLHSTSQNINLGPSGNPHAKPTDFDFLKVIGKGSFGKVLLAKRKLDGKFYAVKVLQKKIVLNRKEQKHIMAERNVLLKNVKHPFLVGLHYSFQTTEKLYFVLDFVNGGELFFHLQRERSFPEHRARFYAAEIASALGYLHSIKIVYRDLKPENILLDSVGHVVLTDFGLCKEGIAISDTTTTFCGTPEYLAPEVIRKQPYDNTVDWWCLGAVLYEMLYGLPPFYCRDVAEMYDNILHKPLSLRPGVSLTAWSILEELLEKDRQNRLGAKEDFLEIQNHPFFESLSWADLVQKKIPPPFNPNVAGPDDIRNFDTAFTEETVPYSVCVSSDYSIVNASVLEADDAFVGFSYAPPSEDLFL

[14] = 10 µM, read-out: % of control at 10 µM

T8 sequence (P22607 23-806 G697C): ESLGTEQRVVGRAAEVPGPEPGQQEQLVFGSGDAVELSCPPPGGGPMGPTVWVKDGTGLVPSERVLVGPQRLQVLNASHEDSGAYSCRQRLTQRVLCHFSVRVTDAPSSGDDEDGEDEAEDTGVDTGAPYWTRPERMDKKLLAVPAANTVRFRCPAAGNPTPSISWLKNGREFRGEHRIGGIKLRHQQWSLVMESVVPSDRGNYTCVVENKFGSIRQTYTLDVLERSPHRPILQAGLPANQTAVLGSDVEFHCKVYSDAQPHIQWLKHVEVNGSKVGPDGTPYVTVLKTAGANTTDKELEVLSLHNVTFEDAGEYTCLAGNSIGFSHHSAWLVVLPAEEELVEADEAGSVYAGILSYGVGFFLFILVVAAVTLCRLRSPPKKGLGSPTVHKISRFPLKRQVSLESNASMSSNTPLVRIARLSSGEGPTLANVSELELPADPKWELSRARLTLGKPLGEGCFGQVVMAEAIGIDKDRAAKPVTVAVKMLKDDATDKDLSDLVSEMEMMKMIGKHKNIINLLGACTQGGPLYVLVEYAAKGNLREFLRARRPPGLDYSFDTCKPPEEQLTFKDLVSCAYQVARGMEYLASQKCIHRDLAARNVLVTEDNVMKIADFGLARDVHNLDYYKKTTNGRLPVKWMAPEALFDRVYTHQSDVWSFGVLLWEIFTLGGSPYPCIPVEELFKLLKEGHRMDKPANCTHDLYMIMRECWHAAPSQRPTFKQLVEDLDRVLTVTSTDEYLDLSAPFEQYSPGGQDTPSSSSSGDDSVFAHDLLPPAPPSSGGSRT
T12 sequence (P53667 whole entry): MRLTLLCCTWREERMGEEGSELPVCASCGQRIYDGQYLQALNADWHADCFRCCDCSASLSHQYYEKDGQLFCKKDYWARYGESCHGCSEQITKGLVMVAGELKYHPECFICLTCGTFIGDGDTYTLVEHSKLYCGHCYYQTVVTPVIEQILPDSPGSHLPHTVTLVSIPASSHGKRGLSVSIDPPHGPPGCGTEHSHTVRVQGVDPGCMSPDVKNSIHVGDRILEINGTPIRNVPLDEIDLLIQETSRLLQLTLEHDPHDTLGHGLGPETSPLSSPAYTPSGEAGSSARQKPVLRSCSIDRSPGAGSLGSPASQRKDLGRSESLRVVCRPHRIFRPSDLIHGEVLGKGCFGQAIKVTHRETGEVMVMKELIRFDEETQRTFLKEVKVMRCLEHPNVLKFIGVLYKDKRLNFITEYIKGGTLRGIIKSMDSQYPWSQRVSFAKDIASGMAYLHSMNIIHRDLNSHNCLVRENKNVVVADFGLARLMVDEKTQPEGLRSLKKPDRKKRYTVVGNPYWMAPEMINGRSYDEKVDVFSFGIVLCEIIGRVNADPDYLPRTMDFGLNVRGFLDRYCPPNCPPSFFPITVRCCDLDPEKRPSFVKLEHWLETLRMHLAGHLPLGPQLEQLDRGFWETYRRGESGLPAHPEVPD
T11 sequence (Q02750 whole entry): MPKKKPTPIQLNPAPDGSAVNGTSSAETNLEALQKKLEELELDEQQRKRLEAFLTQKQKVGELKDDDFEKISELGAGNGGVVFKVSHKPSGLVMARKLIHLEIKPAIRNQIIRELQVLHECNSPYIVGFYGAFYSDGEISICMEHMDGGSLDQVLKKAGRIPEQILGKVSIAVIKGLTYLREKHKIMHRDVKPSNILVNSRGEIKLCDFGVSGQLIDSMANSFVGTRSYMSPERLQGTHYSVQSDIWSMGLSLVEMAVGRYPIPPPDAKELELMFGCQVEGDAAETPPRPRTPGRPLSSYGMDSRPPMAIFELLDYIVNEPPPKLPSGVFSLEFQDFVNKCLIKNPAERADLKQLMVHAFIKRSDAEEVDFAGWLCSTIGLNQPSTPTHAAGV
T6 sequence (P00533 25-1210 T790M): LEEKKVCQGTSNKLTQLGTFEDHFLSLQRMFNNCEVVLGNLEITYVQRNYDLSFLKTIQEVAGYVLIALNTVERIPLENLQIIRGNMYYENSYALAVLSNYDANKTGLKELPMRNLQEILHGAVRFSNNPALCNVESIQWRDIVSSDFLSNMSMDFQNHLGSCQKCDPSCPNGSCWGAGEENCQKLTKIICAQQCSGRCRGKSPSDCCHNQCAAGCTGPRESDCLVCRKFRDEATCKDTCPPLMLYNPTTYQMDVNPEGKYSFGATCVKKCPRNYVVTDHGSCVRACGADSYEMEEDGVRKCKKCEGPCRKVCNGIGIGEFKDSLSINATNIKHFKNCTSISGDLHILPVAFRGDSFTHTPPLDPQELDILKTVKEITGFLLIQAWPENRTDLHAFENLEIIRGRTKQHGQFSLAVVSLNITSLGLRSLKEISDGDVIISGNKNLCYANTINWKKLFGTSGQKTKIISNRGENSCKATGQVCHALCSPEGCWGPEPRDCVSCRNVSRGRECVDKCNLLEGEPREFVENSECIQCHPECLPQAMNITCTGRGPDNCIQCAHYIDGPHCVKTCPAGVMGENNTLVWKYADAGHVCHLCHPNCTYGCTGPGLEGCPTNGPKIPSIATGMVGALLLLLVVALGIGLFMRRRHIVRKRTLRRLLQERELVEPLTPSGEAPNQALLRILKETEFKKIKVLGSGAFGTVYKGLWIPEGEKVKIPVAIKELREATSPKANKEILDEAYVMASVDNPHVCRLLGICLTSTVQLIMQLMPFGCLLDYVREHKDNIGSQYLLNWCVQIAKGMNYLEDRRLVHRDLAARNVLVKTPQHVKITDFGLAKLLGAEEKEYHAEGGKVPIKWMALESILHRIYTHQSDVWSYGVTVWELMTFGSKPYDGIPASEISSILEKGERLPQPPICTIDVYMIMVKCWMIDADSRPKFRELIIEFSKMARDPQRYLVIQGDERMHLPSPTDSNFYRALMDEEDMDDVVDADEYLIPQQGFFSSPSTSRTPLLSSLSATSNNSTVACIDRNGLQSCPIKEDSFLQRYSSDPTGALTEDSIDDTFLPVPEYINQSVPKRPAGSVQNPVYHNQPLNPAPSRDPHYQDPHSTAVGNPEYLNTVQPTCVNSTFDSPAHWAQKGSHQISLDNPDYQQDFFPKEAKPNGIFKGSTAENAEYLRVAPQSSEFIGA
T5 sequence (Q07912 whole entry): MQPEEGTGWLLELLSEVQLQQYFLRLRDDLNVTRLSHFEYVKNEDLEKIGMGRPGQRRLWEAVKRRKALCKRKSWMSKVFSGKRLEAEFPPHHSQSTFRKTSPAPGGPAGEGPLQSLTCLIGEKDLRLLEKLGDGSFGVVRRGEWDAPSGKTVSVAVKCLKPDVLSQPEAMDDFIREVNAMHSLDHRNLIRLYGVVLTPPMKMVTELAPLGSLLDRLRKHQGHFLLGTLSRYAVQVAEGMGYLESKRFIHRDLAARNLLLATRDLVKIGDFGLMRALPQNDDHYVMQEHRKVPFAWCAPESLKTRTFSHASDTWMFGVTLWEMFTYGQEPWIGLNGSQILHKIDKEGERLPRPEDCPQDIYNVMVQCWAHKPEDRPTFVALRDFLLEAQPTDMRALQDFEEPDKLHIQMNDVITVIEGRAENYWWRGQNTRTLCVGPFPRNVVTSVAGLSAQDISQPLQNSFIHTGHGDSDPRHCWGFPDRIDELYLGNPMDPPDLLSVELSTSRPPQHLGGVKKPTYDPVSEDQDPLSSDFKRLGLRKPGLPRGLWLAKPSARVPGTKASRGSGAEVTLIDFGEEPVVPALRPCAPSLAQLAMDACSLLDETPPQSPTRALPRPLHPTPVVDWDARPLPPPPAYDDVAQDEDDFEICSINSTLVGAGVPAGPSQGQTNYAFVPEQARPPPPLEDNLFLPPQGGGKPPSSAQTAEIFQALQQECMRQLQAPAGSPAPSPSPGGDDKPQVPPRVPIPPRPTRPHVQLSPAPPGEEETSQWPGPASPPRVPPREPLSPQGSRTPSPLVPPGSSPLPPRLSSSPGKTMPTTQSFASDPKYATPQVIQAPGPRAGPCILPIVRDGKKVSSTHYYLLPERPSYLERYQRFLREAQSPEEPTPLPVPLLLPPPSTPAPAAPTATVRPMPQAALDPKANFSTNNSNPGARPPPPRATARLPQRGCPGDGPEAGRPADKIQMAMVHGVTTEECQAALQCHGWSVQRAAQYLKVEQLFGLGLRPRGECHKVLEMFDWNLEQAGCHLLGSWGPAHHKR
T3 sequence (Q16620 32-822): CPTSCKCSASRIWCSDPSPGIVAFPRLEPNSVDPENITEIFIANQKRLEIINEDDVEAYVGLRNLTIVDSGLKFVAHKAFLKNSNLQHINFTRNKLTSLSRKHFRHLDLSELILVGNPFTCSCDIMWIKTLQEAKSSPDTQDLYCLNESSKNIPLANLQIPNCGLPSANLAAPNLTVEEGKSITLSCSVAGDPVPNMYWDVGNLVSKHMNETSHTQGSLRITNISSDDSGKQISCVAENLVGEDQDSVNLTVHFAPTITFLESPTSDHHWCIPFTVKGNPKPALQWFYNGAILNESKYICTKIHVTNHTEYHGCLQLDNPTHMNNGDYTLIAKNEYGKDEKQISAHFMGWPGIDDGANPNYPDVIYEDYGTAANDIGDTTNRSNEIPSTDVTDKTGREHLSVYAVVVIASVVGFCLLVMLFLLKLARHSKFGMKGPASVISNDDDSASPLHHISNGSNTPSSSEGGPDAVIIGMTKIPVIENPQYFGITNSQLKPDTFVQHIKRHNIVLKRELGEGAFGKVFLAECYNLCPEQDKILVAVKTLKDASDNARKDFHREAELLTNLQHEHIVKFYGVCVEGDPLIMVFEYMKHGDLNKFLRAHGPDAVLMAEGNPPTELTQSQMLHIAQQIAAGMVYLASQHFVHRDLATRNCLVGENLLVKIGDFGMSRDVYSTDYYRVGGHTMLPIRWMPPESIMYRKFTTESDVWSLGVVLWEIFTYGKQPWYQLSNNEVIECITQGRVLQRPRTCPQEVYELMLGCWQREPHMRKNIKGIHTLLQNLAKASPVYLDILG

SMILES | remaining activity at 1 µM (panel of 442 kinases [1]; ABL1(H396P)-nonphosphorylated) | remaining activity at 1 µM (panel of 442 kinases [1]; ABL1(H396P)-phosphorylated) | remaining activity at 1 µM (panel of 442 kinases [2]) | remaining activity at 1 µM (panel of 442 kinases [3]) | remaining activity at 1 µM (panel of 442 kinases [4]) | remaining activity at 1 µM (panel of 442 kinases [5]) | remaining activity at 1 µM (panel of 442 kinases [6]) | remaining activity at 1 µM (panel of 442 kinases [7]) | remaining activity at 1 µM (panel of 442 kinases [8]) | remaining activity at 1 µM (panel of 442 kinases [9]) | remaining activity at 1 µM (panel of 442 kinases [10]) | remaining activity at 1 µM (panel of 442 kinases [11]) | remaining activity at 1 µM (panel of 442 kinases [12]) | remaining activity at 1 µM (panel of 442 kinases [13]) | also measured
Nc1cc(C(F)(F)F)c(-c2cc(N3CCOCC3)nc(N3CCOCC3)n2)cn1 [Buparlisib] | 99% | 96% | 84% | 96% | 92% | 100% | 73% | 98% | 86% | 100% | 93% | 100% | 100% | 79% | remaining activity at 10 µM (panel of 442 kinases [1]; ABL1(H396P)-nonphosphorylated): 100%; remaining activity at 10 µM (panel of 442 kinases [1]; ABL1(H396P)-phosphorylated): 100%; remaining activity at 10 µM (panel of 442 kinases [2]; [14]): 100%; remaining activity at 10 µM (panel of 442 kinases [3]; 10 µM, read-out: TRKB (% of control at 10 µM)): 80%; remaining activity at 10 µM (panel of 442 kinases [4]; [14]): 98%; remaining activity at 10 µM (panel of 442 kinases [5]; 10 µM, read-out: TNK2 (% of control at 10 µM)): 100%; remaining activity at 10 µM (panel of 442 kinases [6]; [14]): 69%; remaining activity at 10 µM (panel of 442 kinases [7]; [14]): 100%; remaining activity at 10 µM (panel of 442 kinases [8]; [14]): 100%; remaining activity at 10 µM (panel of 442 kinases [9]; [14]): 100%; remaining activity at 10 µM (panel of 442 kinases [10]; 10 µM, read-out: STK39 (% of control at 10 µM)): 100%; remaining activity at 10 µM (panel of 442 kinases [11]; [14]): 100%; remaining activity at 10 µM (panel of 442 kinases [12]; [14]): 100%; remaining activity at 10 µM (panel of 442 kinases [13]; 10 µM, read-out: SGK3 (% of control at 10 µM)): 100%
Cn1c(=O)n(-c2ccc(C(C)(C)C#N)cc2)c2c3cc(-c4cnc5ccccc5c4)ccc3ncc21 [Dactolisib, 2-methyl-2-[4-(3-methyl-2-oxo-8-quinolin-3-yl-2,3-dihydroimidazo[4,5-c]quinolin-1-yl)-phenyl] propionitrile] | 70% | 79% | 100% | 61% | 94% | 98% | 100% | 81% | 90% | 97% | 100% | 94% | 99% | 100% | 
COc1ncc(-c2ccc3nccc(-c4ccnnc4)c3c2)cc1NS(=O)(=O)c1ccc(F)cc1F [Omipalisib] | 100% | 100% | 100% | 100% | 88% | 100% | 100% | 100% | 68% | 100% | 76% | 100% | 100% | 92% | 
FC(F)c1nc2ccccc2n1-c1nc(N2CCOCC2)nc(N2CCOCC2)n1 [ZSTK474, 2-(difluoromethyl)-1-[4,6-di(4-morpholinyl)-1,3,5-triazin-2-yl]-1H-benzimidazole] | 100% | 100% | 100% | 100% | 89% | 100% | 100% | 74% | 100% | 100% | 95% | 100% | 95% | 87% | 
